Measurements reported in patent US20230101768A1, “METHOD TO TREAT MANGANESE TOXICITY AND MANGANESE-INDUCED PA[…] HUMANS” (priority 2021, published 2023).
Like-named read-outs stand apart in the source and are kept apart here.

What was measured:
[1] = system: SLC30A10; assay type: in vivo, mice; details: oral manganese ~15 mg/kg daily from birth until 8 weeks
Method: A well-characterized drinking water-based manganese exposure regimen was used to model human environmental manganese exposure by providing mice with ˜50 mg manganeseCl2.4H2O/kg body weight daily (˜15 mg absolute manganese/kg per day) from birth until 8 weeks of age. This, and related similar, dosing regimens: 1) approximate the increase in manganese exposure in humans consuming well water contaminated with 1.5 mg manganese/L, which is the median well water concentration associated with neurological deficits in children; 2) increase brain manganese levels by ˜2-3 fold, similar to human patients; 3) produce measurable neurobehavioral deficits without overt toxicity; and 4) model exposure to manganese in developmentally-sensitive early-life and adolescent periods (11). Pre-weaning manganese was delivered by pipette directly into the mouth, and post-weaning manganese was delivered in drinking water using procedures described in detail in ref. (11). In brief, pre-weaning dosing was adjusted to each animal's body weight. For this, a stock solution of 69.2 mg absolute manganese/ml prepared in milliQ water was diluted in milliQ water containing 2.5% (wt/vol) of the natural sweetener Stevia (to facilitate intake by pups), and the required manganese amount (0.2 μl manganese stock/g body weight) was delivered in a dose of ˜5-10 μl/animal. For post-weaning exposure, a 27.7 mg absolute manganese/ml stock solution was prepared in water and diluted to 0.069 mg absolute manganese/ml in drinking water, which provided mice with ˜15 mg absolute manganese/kg per day based on a daily water intake of ˜2-5 ml/mouse depending on age.
(§1) To assay for the protective effect of roxadustat, animals were exposed to roxadustat or vehicle with or without manganese in drinking water from ˜4 weeks of age. Treatment lasted for 4 weeks from initiation. Roxadustat (Selleckchem) was prepared as a 50 mg/ml stock solution in DMSO, then diluted to 1 mg/ml in sterile phosphate buffered saline (PBS), and delivered by daily i.p. injection at 10 mg/kg. Vehicle was 2% DMSO in PBS. For this experiment, drinking water manganese levels were adjusted to 0.138 mg absolute manganese/ml so that animals received ˜30 mg absolute manganese/kg daily. A higher level of manganese was used because exposure was initiated after weaning, which was necessary because daily i.p. injections for roxadustat delivery were not possible in the pre-weaning period.
(§2) Animals were euthanized using carbon dioxide and tissue dissected for qRT-PCR or ICPMS analyses as described by us previously (50).
Quantitative RT-PCR assays. RNA extraction from HepG2 cells and mouse tissue, reverse transcription to cDNA, and qRT-PCR analyses were performed as described by us previously (47, 50). For analyses of mouse brain samples, a part of the midbrain, including the basal ganglia, was used. Transcript levels were quantified using the ΔΔCT method with 18S (in mice) or TBP (in HepG2 cells) as the internal control, also as described by us previously (47, 50).

[2] = system: C57BL/6J mice; details: ~30 mg manganese/kg daily in drinking water, 4 weeks
Method: as §1, §2
Inductively coupled plasma mass spectrometry. Metal measurements using ICP-MS were performed exactly as described by us previously (47, 50, 51, 99).

O.O.O.O.[Cl][Mn][Cl] [manganese, manganeseCl2.4H2O]
SLC30A10 levels in intestines ([1]; 129S4/SvJaeJ mice): not
SLC30A10 levels in liver ([1]; 129S4/SvJaeJ mice): increased
SLC30A10 levels in intestines ([1]; C57BL/6J mice): increase
SLC30A10 levels in liver ([1]; C57BL/6J mice): not
Expression of SLC30A10 in the brain ([1]; either strain (129S4/SvJaeJ, C57BL/6J)): did not impact
Blood manganese after manganese treatment [2]: trend towards an increase
Brain manganese levels, main effect of manganese treatment [2]: increasing
